Three molecules from US5332757A, “Oxime derivatives” (Zeneca Limited, priority 1992, dated 1994) can be followed below.

As usually defined, the IC50 is the concentration that inhibits the measured activity by half. Broadly, the ED50 is the midpoint of the dose-response relation.

Test [1] deals with T1, 5-LO (Homo sapiens, UniProt P09917).
T1 construct: incubating a test compound with heparinised human blood, prior to challenge with the calcium ionophore A23187; from tissue; host or cells: heparinised human blood (endogenous enzyme of the blood cells)
T1 sequence (P09917 1-674): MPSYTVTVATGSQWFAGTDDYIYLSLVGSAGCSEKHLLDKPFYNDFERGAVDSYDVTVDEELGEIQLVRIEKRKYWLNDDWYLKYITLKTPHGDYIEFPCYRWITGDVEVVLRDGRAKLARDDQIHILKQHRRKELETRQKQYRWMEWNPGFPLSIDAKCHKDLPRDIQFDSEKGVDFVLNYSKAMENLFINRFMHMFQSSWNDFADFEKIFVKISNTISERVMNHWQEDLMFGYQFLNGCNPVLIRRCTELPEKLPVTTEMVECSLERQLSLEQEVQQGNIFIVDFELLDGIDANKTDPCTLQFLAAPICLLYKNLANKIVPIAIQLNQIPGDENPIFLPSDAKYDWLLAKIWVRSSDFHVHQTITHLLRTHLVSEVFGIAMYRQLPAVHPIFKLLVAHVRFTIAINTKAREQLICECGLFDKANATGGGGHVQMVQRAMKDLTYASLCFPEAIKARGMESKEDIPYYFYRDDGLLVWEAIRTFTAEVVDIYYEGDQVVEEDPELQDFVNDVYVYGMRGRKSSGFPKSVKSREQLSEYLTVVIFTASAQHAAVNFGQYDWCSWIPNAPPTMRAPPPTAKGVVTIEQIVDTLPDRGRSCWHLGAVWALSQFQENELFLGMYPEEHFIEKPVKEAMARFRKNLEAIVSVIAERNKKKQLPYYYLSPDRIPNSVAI
As to the kind of experiment: test a) in vitro assay, heparinised human blood challenged with calcium ionophore A23187, LTB4 radioimmunoassay. The class given is cell-based. The protocol:
a) An in vitro assay system involving incubating a test compound with heparinised human blood, prior to challenge with the calcium ionophore A23187 and then indirectly measuring the inhibitory effects on 5-LO by assaying the amount of LTB4 using specific radioimmunoassays described by Carey and Forder (Prostaglandins, Leukotrienes Med., 1986, 22, 57; Prostaglandins, 1984, 28, 666; Brit. J. Pharmacol., 1985, 84, 34P) which involves the use of a protein-LTB4 conjugate produced using the procedure of Young et alia (Prostaglandins, 1983, 26(4), 605-613). The effects of a test compound on the enzyme cyclooxygenase (which is involved in the alternative metabolic pathway for arachidonic acid and gives rise to prostaglandins, thromboxanes and related metabolites) may be measured at the same time using the specific radioimmunoassay for thromboxane B2 (TxB2) described by Carey and Forder (see above). This test provides an indication of the effects of a test compound against 5-LO and also cyclooxygenase in the presence of blood cells and proteins. It permits the selectivity of the inhibitory effect on 5-LO or cyclooxygenase to be assessed.

In test [2] the target is T2, 5-LO (Rattus norvegicus, UniProt P12527).
T2 construct: within an air pouch generated within the subcutaneous tissue of the back of male rats; from tissue; host or cells: living male rats, cells of the zymosan-inflamed subcutaneous air pouch
T2 sequence (P12527 1-673): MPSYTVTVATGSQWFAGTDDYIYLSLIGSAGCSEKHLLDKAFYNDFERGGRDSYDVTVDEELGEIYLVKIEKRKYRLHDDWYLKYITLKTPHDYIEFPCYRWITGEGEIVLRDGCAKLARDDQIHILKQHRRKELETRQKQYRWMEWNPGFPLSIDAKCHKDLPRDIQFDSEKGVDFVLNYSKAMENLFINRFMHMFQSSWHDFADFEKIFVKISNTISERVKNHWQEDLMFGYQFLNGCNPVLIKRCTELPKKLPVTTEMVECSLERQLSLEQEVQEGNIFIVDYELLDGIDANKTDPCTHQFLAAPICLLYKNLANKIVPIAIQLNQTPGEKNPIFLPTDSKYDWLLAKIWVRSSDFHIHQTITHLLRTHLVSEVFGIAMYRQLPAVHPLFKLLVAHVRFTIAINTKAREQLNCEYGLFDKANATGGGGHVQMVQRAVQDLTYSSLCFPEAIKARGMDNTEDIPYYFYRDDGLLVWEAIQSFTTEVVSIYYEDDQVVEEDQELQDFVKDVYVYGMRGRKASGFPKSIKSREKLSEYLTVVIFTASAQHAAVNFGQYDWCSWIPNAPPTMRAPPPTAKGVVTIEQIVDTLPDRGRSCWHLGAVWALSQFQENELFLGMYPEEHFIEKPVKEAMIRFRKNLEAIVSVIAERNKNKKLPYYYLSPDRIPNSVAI
As to the kind of experiment: test c) in vivo zymosan-induced liberation of LTB4 in rat air pouch. Further details: species or system male rats. The following applies: 3 h; test c), oral. The protocol: c) An in vivo system involving measuring the effects of a test compound administered orally against the liberation of LTB4 induced by zymosan within an air pouch generated within the subcutaneous tissue of the back of male rats. The rats are anaesthetised and air pouches are formed by the injection of sterile air (20 ml). A further injection of air (10 ml) is similarly given after 3 days. At 6 days after the initial air injection the test compound is administered (usually orally as the suspension produced when a solution of the test compound in dimethylsulphoxide is added to hydroxypropylmethylcellulose), followed by the intrapouch injection of zymosan (1 ml of a 1% suspension in physiological saline). After 3 hours the rats are killed, the air pouches are lavaged with physiological saline, and the specific radioimmunoassay described above is used to assay LTB4 in the washings. This test provides an indication of inhibitory effects against 5-LO in an inflammatory milieu.

For `CO/N=C(\C)c1ccc(Sc2cc(F)cc(C3(OC)CCOCC3)c2)cc1` [Example 2, (E)-4'-[5-fluoro-3-(4-methoxytetrahydropyran-4-yl)phenylthio]acetophenone oxime O-methyl ether], the IC50 in test [1] turned out to be 110 nM. Further, the ED50 in test [2] was roughly 0.5 mg/kg.

On to `CO[C@]1(c2cc(F)cc(Sc3ccc(/C(C)=N/O)cc3)c2)CCO[C@@H](C)C1` [Example 26, (E)-4'-{5-fluoro-3-[(2S,4R)-4-methoxy-2-methyltetrahydropyran-4-yl]phenylthio}acetophenone oxime], for which the IC50 in test [1] was 40 nM. Further, in test [2], the ED50 is roughly 0.05 mg/kg.

`COC1(c2cc(F)cc(Sc3ccc(/C(C)=N/OCC#N)cc3)c2)CCOCC1` [Example 5, (E)-4'-[5-fluoro-3-(4-methoxytetrahydropyran-4-yl)phenylthio]acetophenone oxime O-cyanomethyl ether]: in test [1], the IC50 is 30 nM. Besides, the ED50 in test [2] was roughly 0.5 mg/kg.
